Data: patent US7259153B2, “Drug formulation and delivery using crystalline methylated cyclodextrins” (Supernus Pharmaceuticals, priority 2003, dated 2007)
≈ marks a conversion by molar mass, not a printed value. Where two headings read alike, the source gives them in different places. One block for each compound: values may come before it.

Tests used:
[1] = Equilibrium solubility of drug substance in media with solubilizer (excess drug, rotated 48 hours at room temperature, filtered, HPLC); type: physicochemical; details: for solubility enhancement ratio: vs vehicle alone; for solubility at 48 h: thermodynamic from solid
Method: An excess of drug substance was added to 20 ml glass liquid scintillation vials (Kimble Glass Inc., Vineland, N.J.) containing 10 ml of the media with a specific amount of solubilizer. […] The samples were filtered through a 0.45 μm filter (Acrodisc CR PTFE membrane filter, Gelman Sciences, Ann Arbor, Mich.). After discarding the first mL of the filtrates to eliminate any membrane adsorptive effect, the filtrates were collected for high-performance liquid chromatography (HPLC) analysis for drug concentration.

[2] = set by the WHO; cited from earlier work
[3] = water; cited from earlier work
[4] = Water solubility of the cyclodextrin itself; type: physicochemical; details: room temperature
[5] = Stability of crystalline methylated β-cyclodextrin against heat and humidity; type: physicochemical
[6] = 2% (w/v) Cryst. Methylated β-CD, aqueous
[7] = 2% (w/v) HP-β-cyclodextrin, aqueous
[8] = 5% (w/v) Cryst. Methylated β-CD, aqueous
[9] = 5% (w/v) HP-β-cyclodextrin, aqueous
[10] = 10% (w/v) Cryst. Methylated β-CD, aqueous
[11] = 10% (w/v) HP-β-cyclodextrin, aqueous

Compound: NC(=O)N1c2ccccc2CC(=O)c2ccccc21 [Oxcarbazepine]
solubility at 48 h ([1]; 1% (w/v) Cavasol W7M, aqueous, aqueous with cosolvent or surfactant or cyclodextrin, 1% (w/v) Cavasol W7M, aqueous, read-out: Oxcarbazepine Solubility): 150 µg/mL (≈ 0.595 mM) | solubility enhancement ratio ([1]; 1% (w/v) Cavasol W7M, aqueous): 2.1 | solubility at 48 h ([1]; 1% (w/v) Cryst. Methylated β-CD, aqueous, aqueous with cosolvent or surfactant or cyclodextrin, 1% (w/v) Cryst. Methylated β-CD, aqueous, read-out: Oxcarbazepine Solubility): 230 µg/mL (≈ 0.912 mM) | solubility enhancement ratio ([1]; 1% (w/v) Cryst. Methylated β-CD, aqueous): 3.3 | solubility at 48 h ([1]; 1% (w/v) HP-β-cyclodextrin, aqueous, aqueous with cosolvent or surfactant or cyclodextrin, 1% (w/v) HP-β-cyclodextrin, aqueous, read-out: Oxcarbazepine Solubility): 130 µg/mL (≈ 0.515 mM) | solubility enhancement ratio ([1]; 1% (w/v) HP-β-cyclodextrin, aqueous): 1.9 | solubility at 48 h ([1]; 1% (w/v) Tween 80, aqueous, aqueous with cosolvent or surfactant or cyclodextrin, 1% (w/v) Tween 80, aqueous, read-out: Oxcarbazepine Solubility): 120 µg/mL (≈ 0.476 mM) | solubility enhancement ratio ([1]; 1% (w/v) Tween 80, aqueous): 1.7 | solubility at 48 h ([1]; 2% (w/v) Cavasol W7M, aqueous, aqueous with cosolvent or surfactant or cyclodextrin, 2% (w/v) Cavasol W7M, aqueous, read-out: Oxcarbazepine Solubility): 240 µg/mL (≈ 0.951 mM) | solubility enhancement ratio ([1]; 2% (w/v) Cavasol W7M, aqueous): 3.4 | solubility at 48 h ([1]; 2% (w/v) Cryst. Methylated β-CD, aqueous, aqueous with cosolvent or surfactant or cyclodextrin, 2% (w/v) Cryst. Methylated β-CD, aqueous, read-out: Oxcarbazepine Solubility): 310 µg/mL (≈ 1.23 mM) | solubility enhancement ratio [1, 6]: 4.4 | solubility at 48 h ([1]; 2% (w/v) HP-β-cyclodextrin, aqueous, aqueous with cosolvent or surfactant or cyclodextrin, 2% (w/v) HP-β-cyclodextrin, aqueous, read-out: Oxcarbazepine Solubility): 190 µg/mL (≈ 0.753 mM) | solubility enhancement ratio [1, 7]: 2.7 | solubility at 48 h ([1]; 2% (w/v) Tween 80, aqueous, aqueous with cosolvent or surfactant or cyclodextrin, 2% (w/v) Tween 80, aqueous, read-out: Oxcarbazepine Solubility): 170 µg/mL (≈ 0.674 mM) | solubility enhancement ratio ([1]; 2% (w/v) Tween 80, aqueous): 2.4 | solubility enhancement ratio ([1]; 5% (w/v) Cavasol W7M, aqueous): 7.0 | solubility enhancement ratio [1, 8]: 11.7 | solubility enhancement ratio [1, 9]: 4.9 | solubility at 48 h ([1]; 5% (w/v) Tween 80, aqueous, aqueous with cosolvent or surfactant or cyclodextrin, 5% (w/v) Tween 80, aqueous, read-out: Oxcarbazepine Solubility): 290 µg/mL (≈ 1.15 mM) | solubility enhancement ratio ([1]; 5% (w/v) Tween 80, aqueous): 4.1 | solubility enhancement ratio ([1]; 10% (w/v) Cavasol W7M, aqueous): 9.6 | solubility enhancement ratio [1, 10]: 21.3 | solubility enhancement ratio [1, 11]: 9.6 | solubility enhancement ratio ([1]; 10% (w/v) Tween 80, aqueous): 7.1 | solubility at 48 h ([1]; aqueous media with solubilizer, aqueous with cosolvent or surfactant or cyclodextrin, 5% (w/v) Cavasol W7M, aqueous, read-out: Oxcarbazepine Solubility): 490 µg/mL (≈ 1.94 mM) | solubility at 48 h ([1]; aqueous media with solubilizer, aqueous with cosolvent or surfactant or cyclodextrin, 5% (w/v) Cryst. Methylated β-CD, aqueous, read-out: Oxcarbazepine Solubility): 820 µg/mL (≈ 3.25 mM) | solubility at 48 h ([1]; aqueous media with solubilizer, aqueous with cosolvent or surfactant or cyclodextrin, 5% (w/v) HP-β-cyclodextrin, aqueous, read-out: Oxcarbazepine Solubility): 340 µg/mL (≈ 1.35 mM) | solubility at 48 h ([1]; aqueous media with solubilizer, aqueous with cosolvent or surfactant or cyclodextrin, 10% (w/v) Cavasol W7M, aqueous, read-out: Oxcarbazepine Solubility): 670 µg/mL (≈ 2.66 mM) | solubility at 48 h ([1]; aqueous media with solubilizer, aqueous with cosolvent or surfactant or cyclodextrin, 10% (w/v) Cryst. Methylated β-CD, aqueous, read-out: Oxcarbazepine Solubility): 1490 µg/mL (≈ 5.91 mM) | solubility at 48 h ([1]; aqueous media with solubilizer, aqueous with cosolvent or surfactant or cyclodextrin, 10% (w/v) HP-β-cyclodextrin, aqueous, read-out: Oxcarbazepine Solubility): 670 µg/mL (≈ 2.66 mM) | solubility at 48 h ([1]; aqueous media with solubilizer, aqueous with cosolvent or surfactant or cyclodextrin, 10% (w/v) Tween 80, aqueous, read-out: Oxcarbazepine Solubility): 500 µg/mL (≈ 1.98 mM) | Oxcarbazepine Solubility ([1]; water, 0% (w/v) solubilizer): 70 µg/mL | solubility at 48 h ([1]; water, water, 0% (w/v) solubilizer, read-out: Oxcarbazepine Solubility): 70 µg/mL (≈ 0.277 mM)

Compound: CC(O)CO (centres unmarked) [propylene glycol]
acceptable daily intake [2]: up to 25 mg/kg body weight

Compound: OC[C@H]1O[C@@H]2O[C@H]3[C@H](O)[C@@H](O)[C@@H](O[C@H]4[C@H](O)[C@@H](O)[C@@H](O[C@H]5[C@H](O)[C@@H](O)[C@@H](O[C@H]6[C@H](O)[C@@H](O)[C@@H](O[C@H]7[C@H](O)[C@@H](O)[C@@H](O[C@H]8[C@H](O)[C@@H](O)[C@@H](O[C@H]1[C@H](O)[C@H]2O)O[C@@H]8CO)O[C@@H]7CO)O[C@@H]6CO)O[C@@H]5CO)O[C@@H]4CO)O[C@@H]3CO [β-cyclodextrin]
aqueous solubility [3]: 1.8 % w/v

Further lines, results first:

solubility enhancement ratio ([1]; 1% (w/v) β-Cyclodextrin, aqueous): 5.9 | solubility at 48 h ([1]; 1% (w/v) β-cyclodextrin in water, aqueous with cosolvent or surfactant or cyclodextrin, 1% (w/v) β-Cyclodextrin, aqueous, read-out: Carbamazepine Solubility): 669 µg/mL (≈ 2.83 mM) | solubility at 48 h ([1]; 2% (w/v) Cavasol W7M in water, aqueous with cosolvent or surfactant or cyclodextrin, 2% (w/v) Cavasol W7M, aqueous, read-out: Carbamazepine Solubility): 1070 µg/mL (≈ 4.52 mM) | solubility enhancement ratio ([1]; 2% (w/v) Cavasol W7M, aqueous): 9.5 | solubility enhancement ratio [1, 6]: 13.7 | solubility at 48 h ([1]; 2% (w/v) HP-β-cyclodextrin in water, aqueous with cosolvent or surfactant or cyclodextrin, 2% (w/v) HP-β-cyclodextrin, aqueous, read-out: Carbamazepine Solubility): 1240 µg/mL (≈ 5.26 mM) | solubility enhancement ratio [1, 7]: 11.0 | solubility at 48 h ([1]; 2% (w/v) crystalline methylated β-cyclodextrin in water, aqueous with cosolvent or surfactant or cyclodextrin, 2% (w/v) Cryst. Methylated β-CD, aqueous, read-out: Carbamazepine Solubility): 1540 µg/mL (≈ 6.53 mM) | solubility enhancement ratio ([1]; 2% (w/v) β-Cyclodextrin, aqueous): 10.5 | solubility at 48 h ([1]; 2% (w/v) β-cyclodextrin in water, aqueous with cosolvent or surfactant or cyclodextrin, 2% (w/v) β-Cyclodextrin, aqueous, read-out: Carbamazepine Solubility): 1190 µg/mL (≈ 5.02 mM) | solubility at 48 h ([1]; 5% (w/v) Cavasol W7M in water, aqueous with cosolvent or surfactant or cyclodextrin, 5% (w/v) Cavasol W7M, aqueous, read-out: Carbamazepine Solubility): 2580 µg/mL (≈ 10.9 mM) | solubility enhancement ratio ([1]; 5% (w/v) Cavasol W7M, aqueous): 22.8 | solubility enhancement ratio [1, 8]: 31.8 | solubility at 48 h ([1]; 5% (w/v) HP-β-cyclodextrin in water, aqueous with cosolvent or surfactant or cyclodextrin, 5% (w/v) HP-β-cyclodextrin, aqueous, read-out: Carbamazepine Solubility): 2880 µg/mL (≈ 12.2 mM) | solubility enhancement ratio [1, 9]: 25.4 | solubility at 48 h ([1]; 5% (w/v) crystalline methylated β-cyclodextrin in water, aqueous with cosolvent or surfactant or cyclodextrin, 5% (w/v) Cryst. Methylated β-CD, aqueous, read-out: Carbamazepine Solubility): 3590 µg/mL (≈ 15.2 mM) | solubility at 48 h ([1]; 7.5% (w/v) Cavasol W7M in water, aqueous with cosolvent or surfactant or cyclodextrin, 7.5% (w/v) Cavasol W7M, aqueous, read-out: Carbamazepine Solubility): 3760 µg/mL (≈ 15.9 mM) | solubility enhancement ratio ([1]; 7.5% (w/v) Cavasol W7M, aqueous): 33.3 | solubility enhancement ratio ([1]; 7.5% (w/v) Cryst. Methylated β-CD, aqueous): 47.5 | solubility at 48 h ([1]; 7.5% (w/v) HP-β-cyclodextrin in water, aqueous with cosolvent or surfactant or cyclodextrin, 7.5% (w/v) HP-β-cyclodextrin, aqueous, read-out: Carbamazepine Solubility): 4870 µg/mL (≈ 20.6 mM) | solubility enhancement ratio ([1]; 7.5% (w/v) HP-β-cyclodextrin, aqueous): 43.1 | solubility at 48 h ([1]; 7.5% (w/v) crystalline methylated β-cyclodextrin in water, aqueous with cosolvent or surfactant or cyclodextrin, 7.5% (w/v) Cryst. Methylated β-CD, aqueous, read-out: Carbamazepine Solubility): 5370 µg/mL (≈ 22.7 mM) | solubility at 48 h ([1]; 10% (w/v) Cavasol W7M in water, aqueous with cosolvent or surfactant or cyclodextrin, 10% (w/v) Cavasol W7M, aqueous, read-out: Carbamazepine Solubility): 5250 µg/mL (≈ 22.2 mM) | solubility enhancement ratio ([1]; 10% (w/v) Cavasol W7M, aqueous): 46.4 | solubility enhancement ratio [1, 10]: 61.6 | solubility at 48 h ([1]; 10% (w/v) HP-β-cyclodextrin in water, aqueous with cosolvent or surfactant or cyclodextrin, 10% (w/v) HP-β-cyclodextrin, aqueous, read-out: Carbamazepine Solubility): 6020 µg/mL (≈ 25.5 mM) | solubility enhancement ratio [1, 11]: 53.3 | solubility at 48 h ([1]; 10% (w/v) crystalline methylated β-cyclodextrin in water, aqueous with cosolvent or surfactant or cyclodextrin, 10% (w/v) Cryst. Methylated β-CD, aqueous, read-out: Carbamazepine Solubility): 6960 µg/mL (≈ 29.5 mM) | solubility at 48 h ([1]; 20% (w/v) Cavasol W7M in water, aqueous with cosolvent or surfactant or cyclodextrin, 20% (w/v) Cavasol W7M, aqueous, read-out: Carbamazepine Solubility): 10900 µg/mL (≈ 46.2 mM) | solubility enhancement ratio ([1]; 20% (w/v) Cavasol W7M, aqueous): 96.5 | solubility enhancement ratio ([1]; 20% (w/v) Cryst. Methylated β-CD, aqueous): 132.4 | solubility at 48 h ([1]; 20% (w/v) HP-β-cyclodextrin in water, aqueous with cosolvent or surfactant or cyclodextrin, 20% (w/v) HP-β-cyclodextrin, aqueous, read-out: Carbamazepine Solubility): 10700 µg/mL (≈ 45.3 mM) | solubility enhancement ratio ([1]; 20% (w/v) HP-β-cyclodextrin, aqueous): 94.8 | solubility at 48 h ([1]; 20% (w/v) crystalline methylated β-cyclodextrin in water, aqueous with cosolvent or surfactant or cyclodextrin, 20% (w/v) Cryst. Methylated β-CD, aqueous (heating to dissolve CD), read-out: Carbamazepine Solubility): 15000 µg/mL (≈ 63.3 mM) | solubility at 48 h ([1]; PEG 400, organic solvent or mixture, vehicle: PEG 400, read-out: Carbamezepine Solubility): 77900 µg/mL (≈ 330 mM) | solubility at 48 h ([1]; Transcutol, organic solvent or mixture, vehicle: Transcutol, read-out: Carbamezepine Solubility): 78100 µg/mL (≈ 331 mM) | carbamazepine solubility in propylene glycol relative to aqueous solubility ([1]; propylene glycol vs water): about 310 fold | solubility at 48 h ([1]; propylene glycol, organic solvent or mixture, vehicle: Propylene Glycol, read-out: Carbamezepine Solubility): 35300 µg/mL (≈ 150 mM) | Carbamazepine Solubility ([1]; water, 0% (w/v) cyclodextrin): 113 µg/mL
Compound: NC(=O)N1c2ccccc2C=Cc2ccccc21 [Carbamazepine]

water solubility [4]: around 15% | stability against heat and humidity [5]: stable against heat and humidity
Compound: crystalline methylated β-cyclodextrin
